# Literature values as cited in patent US20200315976A1, “Encapsulation Methods and Compositions” (Prodo Laboratories, Inc., priority 2017, published 2020).
# System: islets
smiles,measurement,value
"CCOC(=O)c1ccccc1-c1c2cc(Br)c(=O)c(Br)c-2oc2c(Br)c([O-])c(Br)cc12.[K+] [Ethyl eosin, ethyl eosin]",effect on islets during conformal encapsulation,islet death
